assay: in vitro; details: human, hek293t cells

Question: For `C=CC(=O)N1CCOCC1c1ccnn1C` (stereo not drawn) [3-I19, 1-[3-(1-methyl-1H-pyrazol-5-yl)morpholin-4-yl]prop-2-en-1-one], which viability at 48 h, 25 µM is on record?
Answer: 49.7%

Question: For `C=CC(=O)NCc1ccc(N2CCN(C)CC2)cc1` [3-I20, N-{[4-(4-methylpiperazin-1-yl)phenyl]methyl}prop-2-enamide], which viability at 48 h, 25 µM is on record?
Answer: 112%

Question: With `C=CC(=O)N1CCC(C(=O)NC2CCN(C(=O)C(C)(C)C)CC2)CC1` [3-I21, N-[1-(2,2-dimethylpropanoyl)piperidin-4-yl]-1-(prop-2-enoyl)piperidine-4-carboxamide] as the molecule, how does the viability at 48 h, 25 µM read?
Answer: 52.8%

Question: For `C=CC(=O)N1CCC(c2nc3c(s2)CCC3)CC1` [3-I22, 1-(4-{4H,5H,6H-cyclopenta[d][1,3]thiazol-2-yl}piperidin-1-yl)prop-2-en-1-one], which viability at 48 h, 25 µM is on record?
Answer: 91.2%

Question: With `C=CC(=O)N1CCC(C(=O)NCCn2c(=O)[nH]c3ccccc32)CC1` [3-J03, N-[2-(2-oxo-2,3-dihydro-1H-1,3-benzodiazol-1-yl)ethyl]-1-(prop-2-enoyl)piperidine-4-carboxamide] as the molecule, how does the viability at 48 h, 25 µM read?
Answer: 72.2%

Question: With `C=CC(=O)Nc1cc(NC(=O)c2ccc([N+](=O)[O-])o2)ccc1F` [3-J04, N-[4-fluoro-3-(prop-2-enamido)phenyl]-5-nitrofuran-2-carboxamide] as the molecule, how does the viability at 48 h, 25 µM read?
Answer: 0.415%

Question: Which viability at 48 h, 25 µM does the source give for `C=CC(=O)N1CCC(C(=O)Nc2c[nH]c(=O)c(C)c2)CC1` [3-J05, N-(5-methyl-6-oxo-1,6-dihydropyridin-3-yl)-1-(prop-2-enoyl)piperidine-4-carboxamide] here?
Answer: 51.5%

Question: With `C=CC(=O)N1CCC(C(=O)N2CC=CCC2)(c2ccccc2)CC1` [3-J06, 1-[4-phenyl-4-(1,2,3,6-tetrahydropyridine-1-carbonyl)piperidin-1-yl]prop-2-en-1-one] as the molecule, how does the viability at 48 h, 25 µM read?
Answer: 61.7%

Question: With `C=CC(=O)N(C)CC(=O)Nc1ccc(N2CCOCC2=O)c(C)c1` [3-J07, N-methyl-N-({[3-methyl-4-(3-oxomorpholin-4-yl)phenyl]carbamoyl}methyl)prop-2-enamide] as the molecule, how does the viability at 48 h, 25 µM read?
Answer: 51.4%

Question: Which viability at 48 h, 25 µM does the source give for `C=CC(=O)N1CCC(C(=O)NCc2ccc(C(N)=O)cc2)CC1` [3-J08, N-[(4-carbamoylphenyl)methyl]-1-(prop-2-enoyl)piperidine-4-carboxamide] here?
Answer: 82.2%

Question: For `C=CC(=O)NCCc1nnc(-c2ccccc2)o1` [3-J09, N-[2-(5-phenyl-1,3,4-oxadiazol-2-yl)ethyl]prop-2-enamide], which viability at 48 h, 25 µM is on record?
Answer: 70.8%

Question: With `C=CC(=O)NCc1nc2ccccc2c(=O)n1C` [3-J10, N-[(3-methyl-4-oxo-3,4-dihydroquinazolin-2-yl)methyl]prop-2-enamide] as the molecule, how does the viability at 48 h, 25 µM read?
Answer: 88.6%

Question: For `C=CC(=O)N(Cc1ccc(-n2cncn2)cc1)C1CC1` [3-J11, N-cyclopropyl-N-{[4-(1H-1,2,4-triazol-1-yl)phenyl]methyl}prop-2-enamide], which viability at 48 h, 25 µM is on record?
Answer: 40.7%

Question: Which viability at 48 h, 25 µM does the source give for `C=CC(=O)N1CCC(C(=O)Nc2ccc(CC)cc2)CC1` [3-J12, N-(4-ethylphenyl)-1-(prop-2-enoyl)piperidine-4-carboxamide] here?
Answer: 85.6%

Question: Which viability at 48 h, 25 µM does the source give for `C=CC(=O)NCc1csc2nccn12` [3-J13, N-({imidazo[2,1-b][1,3]thiazol-3-yl}methyl)prop-2-enamide] here?
Answer: 76.8%

Question: Which viability at 48 h, 25 µM does the source give for `C=CC(=O)N1CCOCC2(COCCN2C)C1` (stereo not drawn) [3-J14, 1-{1-methyl-4,8-dioxa-1,11-diazaspiro[5.6]dodecan-11-yl}prop-2-en-1-one] here?
Answer: 96%

Question: Which viability at 48 h, 25 µM does the source give for `C=CC(=O)NCC1CS(=O)(=O)c2ccccc21` (stereo not drawn) [3-J15, N-[(1,1-dioxo-2,3-dihydro-1lambda6-benzothiophen-3-yl)methyl]prop-2-enamide] here?
Answer: 81.2%

Question: Which viability at 48 h, 25 µM does the source give for `C=CC(=O)Nc1ccc(-n2ccccc2=O)cc1F` [3-J16, N-[2-fluoro-4-(2-oxo-1,2-dihydropyridin-1-yl)phenyl]prop-2-enamide] here?
Answer: 101%

Question: For `C=CC(=O)NCCS(=O)(=O)c1cccs1` [3-J17, N-[2-(thiophene-2-sulfonyl)ethyl]prop-2-enamide], which viability at 48 h, 25 µM is on record?
Answer: 93.4%

Question: With `C=CC(=O)N1CCC(C(=O)Nc2n[nH]c3cc(C#N)c(C)cc23)CC1` [3-J18, N-(6-cyano-5-methyl-1H-indazol-3-yl)-1-(prop-2-enoyl)piperidine-4-carboxamide] as the molecule, how does the viability at 48 h, 25 µM read?
Answer: 90.3%

Question: Which viability at 48 h, 25 µM does the source give for `C=CC(=O)NCc1ccc(N2CC(C)CS2(=O)=O)cc1` (stereo not drawn) [3-J19, N-{[4-(4-methyl-1,1-dioxo-1lambda6,2-thiazolidin-2-yl)phenyl]methyl}prop-2-enamide] here?
Answer: 95.4%

Question: For `C=CC(=O)NC(c1ccc(F)cc1)c1ccn(C)n1` (stereo not drawn) [3-J20, N-[(4-fluorophenyl)(1-methyl-1H-pyrazol-3-yl)methyl]prop-2-enamide], which viability at 48 h, 25 µM is on record?
Answer: 99.9%

Question: Which viability at 48 h, 25 µM does the source give for `C=CC(=O)N(Cc1cn2ccccc2n1)C1CC1` [3-J21, N-cyclopropyl-N-({imidazo[1,2-a]pyridin-2-yl}methyl)prop-2-enamide] here?
Answer: 73.1%

Question: With `C=CC(=O)NCCC(=O)N1CCN(c2ccccc2Cl)CC1` [3-J22, N-{3-[4-(2-chlorophenyl)piperazin-1-yl]-3-oxopropyl}prop-2-enamide] as the molecule, how does the viability at 48 h, 25 µM read?
Answer: 88.6%

Question: Which viability at 48 h, 25 µM does the source give for `C=CC(=O)N1CCC(C(O)c2ccnn2C)CC1` (stereo not drawn) [3-K03, 1-{4-[hydroxy(1-methyl-1H-pyrazol-5-yl)methyl]piperidin-1-yl}prop-2-en-1-one] here?
Answer: 59%

Question: Which viability at 48 h, 25 µM does the source give for `C=CC(=O)NCCC(=O)N1CCOC(c2nc(C)cs2)C1` (stereo not drawn) [3-K04, N-{3-[2-(4-methyl-1,3-thiazol-2-yl)morpholin-4-yl]-3-oxopropyl}prop-2-enamide] here?
Answer: 89.7%

Question: Which viability at 48 h, 25 µM does the source give for `C=CC(=O)N1CCC(C(=O)NOC2CCCC2)(c2ccccc2)CC1` [3-K06, N-(cyclopentyloxy)-4-phenyl-1-(prop-2-enoyl)piperidine-4-carboxamide] here?
Answer: 77.1%

Question: Which viability at 48 h, 25 µM does the source give for `C=CC(=O)N1CCCC1(COC)C(N)=O` (stereo not drawn) [3-K07, 2-(methoxymethyl)-1-(prop-2-enoyl)pyrrolidine-2-carboxamide] here?
Answer: 143%

Question: Which viability at 48 h, 25 µM does the source give for `C=CC(=O)NCc1ccc(C(=O)N2CCC(c3ccn[nH]3)CC2)cc1` [3-K08, N-({4-[4-(1H-pyrazol-5-yl)piperidine-1-carbonyl]phenyl}methyl)prop-2-enamide] here?
Answer: 95.2%

Question: For `C=CC(=O)N1CCC(n2ccnn2)CC1` [3-K09, 1-[4-(1H-1,2,3-triazol-1-yl)piperidin-1-yl]prop-2-en-1-one], which viability at 48 h, 25 µM is on record?
Answer: 65.2%

Question: For `C=CC(=O)N1CCCN(S(N)(=O)=O)CC1` [3-K10, 4-(prop-2-enoyl)-1,4-diazepane-1-sulfonamide], which viability at 48 h, 25 µM is on record?
Answer: 98.5%

Question: With `C=CC(=O)N1CCOC(c2cnn(C)c2)C1` (stereo not drawn) [3-K11, 1-[2-(1-methyl-1H-pyrazol-4-yl)morpholin-4-yl]prop-2-en-1-one] as the molecule, how does the viability at 48 h, 25 µM read?
Answer: 49.9%

Question: Which viability at 48 h, 25 µM does the source give for `C=CC(=O)N1CCCCC1c1noc(C2CC2)n1` (stereo not drawn) [3-K12, 1-[2-(5-cyclopropyl-1,2,4-oxadiazol-3-yl)piperidin-1-yl]prop-2-en-1-one] here?
Answer: 105%

Question: Which viability at 48 h, 25 µM does the source give for `C=CC(=O)NCC(C)(C)C1(O)CCOC1` (stereo not drawn) [3-K13, N-[2-(3-hydroxyoxolan-3-yl)-2-methylpropyl]prop-2-enamide] here?
Answer: 68%

Question: For `C=CC(=O)N1CCCC(O)(CC(N)=O)C1` (stereo not drawn) [3-K14, 2-[3-hydroxy-1-(prop-2-enoyl)piperidin-3-yl]acetamide], which viability at 48 h, 25 µM is on record?
Answer: 101%

Question: Which viability at 48 h, 25 µM does the source give for `C=CC(=O)NCc1cccc(NS(C)(=O)=O)c1` [3-K15, N-[(3-methanesulfonamidophenyl)methyl]prop-2-enamide] here?
Answer: 31.7%

Question: Which viability at 48 h, 25 µM does the source give for `C=CC(=O)N(CC)CC(=O)N1CCc2c(cccc2NC(C)=O)C1` [3-K16, N-[2-(5-acetamido-1,2,3,4-tetrahydroisoquinolin-2-yl)-2-oxoethyl]-N-ethylprop-2-enamide] here?
Answer: 90.5%

Question: Which viability at 48 h, 25 µM does the source give for `C=CC(=O)N(C)CC(=O)N1CCCCC1c1nc(C)no1` (stereo not drawn) [3-K17, N-methyl-N-{2-[2-(3-methyl-1,2,4-oxadiazol-5-yl)piperidin-1-yl]-2-oxoethyl}prop-2-enamide] here?
Answer: 47.9%

Question: Which viability at 48 h, 25 µM does the source give for `C=CC(=O)Nc1ccc2oc(CC(C)(C)C)nc2c1` [3-K18, N-[2-(2,2-dimethylpropyl)-1,3-benzoxazol-5-yl]prop-2-enamide] here?
Answer: 82.2%

Question: With `C=CC(=O)N1CCC(c2ccc(OC)c(F)c2)C1` (stereo not drawn) [3-K19, 1-[3-(3-fluoro-4-methoxyphenyl)pyrrolidin-1-yl]prop-2-en-1-one] as the molecule, how does the viability at 48 h, 25 µM read?
Answer: 48.9%

Question: Which viability at 48 h, 25 µM does the source give for `C=CC(=O)NCCCn1cnc2c1CCCC2` [3-K20, N-[3-(4,5,6,7-tetrahydro-1H-1,3-benzodiazol-1-yl)propyl]prop-2-enamide] here?
Answer: 101%

Question: With `C=CC(=O)N(CC)CC(=O)N1CC[S+]([O-])C(C)(C)CC1` (stereo not drawn) [3-K21, N-[2-(7,7-dimethyl-1-oxo-1lambda4,4-thiazepan-4-yl)-2-oxoethyl]-N-ethylprop-2-enamide] as the molecule, how does the viability at 48 h, 25 µM read?
Answer: 40.1%

Question: For `C=CC(=O)NC1(c2ncon2)CCOCC1` [3-K22, N-[4-(1,2,4-oxadiazol-3-yl)oxan-4-yl]prop-2-enamide], which viability at 48 h, 25 µM is on record?
Answer: 66.9%

Question: Which viability at 48 h, 25 µM does the source give for `C=CC(=O)N1CCC(C(=O)NCc2ncc(N(C)C)cn2)CC1` [3-L03, N-{[5-(dimethylamino)pyrimidin-2-yl]methyl}-1-(prop-2-enoyl)piperidine-4-carboxamide] here?
Answer: 68.2%

Question: Which viability at 48 h, 25 µM does the source give for `C=CC(=O)Nc1cccc(-c2ccon2)c1` [3-L04, N-[3-(1,2-oxazol-3-yl)phenyl]prop-2-enamide] here?
Answer: 70.4%

Question: With `C=CC(=O)N(CC)CC(=O)N1CCN(c2ccsc2C#N)CC1` [3-L05, N-{2-[4-(2-cyanothiophen-3-yl)piperazin-1-yl]-2-oxoethyl}-N-ethylprop-2-enamide] as the molecule, how does the viability at 48 h, 25 µM read?
Answer: 62.6%

Question: Which viability at 48 h, 25 µM does the source give for `C=CC(=O)NCc1ccc(C(=O)N2CCC[C@H]2C(=O)NC)cc1` [3-L06, (2S)-N-methyl-1-{4-[(prop-2-enamido)methyl]benzoyl}pyrrolidine-2-carboxamide] here?
Answer: 80.6%

Question: With `C=CC(=O)NCC(F)(F)C1(OC)CCC1` [3-L07, N-[2,2-difluoro-2-(1-methoxycyclobutyl)ethyl]prop-2-enamide] as the molecule, how does the viability at 48 h, 25 µM read?
Answer: 82.7%

Question: For `C=CC(=O)N(C)Cc1nc2c(cnn2C)c(=O)[nH]1` [3-L08, N-methyl-N-({1-methyl-4-oxo-1H,4H,5H-pyrazolo[3,4-d]pyrimidin-6-yl}methyl)prop-2-enamide], which viability at 48 h, 25 µM is on record?
Answer: 70.4%

Question: With `C=CC(=O)NC1(c2nc(C)no2)CC1` [3-L09, N-[1-(3-methyl-1,2,4-oxadiazol-5-yl)cyclopropyl]prop-2-enamide] as the molecule, how does the viability at 48 h, 25 µM read?
Answer: 46.8%

Question: For `C=CC(=O)Nc1cnoc1C(C)C` [3-L10, N-[5-(propan-2-yl)-1,2-oxazol-4-yl]prop-2-enamide], which viability at 48 h, 25 µM is on record?
Answer: 92.6%
